Here are results for 15 compounds from EPA's ToxValDB 9.5.

Values after ≈ are worked out from the molar mass of the structure shown. Values joined by “and” are separate entries in the source; they are usually repeats but may differ in a detail not shown here. Equal values may be shown once.

What is called LOAEL is the lowest dose or exposure tested at which an adverse effect was seen. Broadly, the NOAEL is the highest dose or exposure tested at which no adverse effect was seen.

For data set [1] the following is noted: for NOAEL: subchronic.
The test system of another data set is Rattus norvegicus. As to conditions: for LD50: acute, mortality.
The test system of a further data set is Oryctolagus sp. As to conditions: reproduction developmental.
The subject of the next data set is Pontoscolex corethrurus. Conditions: for LC50: acute, mortality.
A further data set concerns Daphnia magna. As to conditions: for LC50: acute, mortality.
A further data set concerns Tagia sp. Conditions: for LC50: acute.
The subject of another data set is Pleurozium sp. As to conditions: acute; duration: 72 hours; growth.
Another data set deals with Plant. Conditions: not reported; seedling emergence.
In a further data set the test system is Bovidae. Conditions: subchronic; duration: 56 days; oral; diet; F; no effects.
For the next data set, the system named is Cyprinus carpio. Conditions: acute; duration: 96 hours; mortality.
The next data set concerns Homo sapiens. As to conditions: clinical; duration: 15 days; inhalation; clinical signs.
The next data set concerns Apis mellifera. Conditions: acute, mortality.
The test system of a further data set is Lymnaea stagnalis. Conditions: chronic/long-term; duration: 50 days.
A further data set relates to Gallus gallus. As to conditions: for LEL: subchronic, oral, diet, no effects.
For a further data set, the system named is Bibionidae. As to conditions: chronic/long-term; duration: 28 days; seedling emergence.
The subject of another data set is Meleagris sp. Conditions: for LEL: subchronic, duration: 42 days, oral, feed, no effects.
Another data set concerns Hypoaspis aculeifer. Conditions: chronic/long-term; duration: 14 days; mortality.
The next data set concerns Folsomia candida. As to conditions: chronic/long-term; duration: 28 days; mortality.
A further data set relates to Oncorhynchus mykiss. Conditions: acute; duration: 96 hours; mortality.
A further data set relates to Typhlodromus pyri. Kind of data set: LR50; higher = less toxic. As to conditions: acute; duration: 7 days; mortality.
[2] abbreviates: subchronic, duration: 42 days, oral, diet, M/F, Not specified, no effects.

As for `CCOCCC(OCC)OCC` [1,1,3-Triethoxypropane], the lowest-observed-adverse-effect level (LOAEL) in data set [1] (repeat dose other) is 9.5 mg/kg-day; in the data set with Rattus norvegicus (subchronic, M, hematological), 69 mg/kg-day.
In the case of `O=C(O)Cn1cncn1` [1,2,4-Triazole-1-acetic acid], the NOAEL in the data set on Oryctolagus sp. (body weight) turned out to be 100 mg/kg-day; in the data set on Rattus norvegicus (reproduction developmental, body weight) it was 100 mg/kg-day.
Take `CCCCCCC(C=O)=Cc1ccccc1` [2-(Phenylmethylene)octanal]: in data set [1] (acute, mortality), the LC50 was 0.2 µg/mL (≈ 0.925 µM). Besides, the no-observed-adverse-effect level (NOAEL) with Rattus norvegicus (chronic, duration: 14 weeks, oral, diet, M/F, organ weight) was found to be 30 mg/kg-day.
Turning to `CCC(C)c1nccnc1OC` (stereo not drawn) [3-sec-Butyl-2-methoxypyrazine], the values for the LC50 in the data set with Pontoscolex corethrurus and in the data set on Daphnia magna were 235 mg/kg and 14 µg/mL (≈ 84.2 µM), respectively.
With `O=C(Nc1ccc([N+](=O)[O-])cc1)Nc1ccc([N+](=O)[O-])cc1` [4,4'-Dinitrodiphenylurea], the LC50 with Tagia sp. (duration: 14 days, no effects) is > 1000 mg/kg. Moreover, the NOEC with Pleurozium sp. was determined as 0.042 µg/L; with Plant it was 2.9 mg/kg.
Take `CC(=O)CCc1ccc(O)cc1` [4-(4-Hydroxyphenyl)butan-2-one]: the figures for the LC50 in the data set on Pontoscolex corethrurus and in the data set on Daphnia magna were 248 mg/kg and 16.9 µg/mL (≈ 103 µM), respectively. Also, the NOAEL in data set [1] (duration: 13 weeks) amounted to 280 mg/kg-day.
In turn, `C[C@H]1O[C@H](O[C@H]2[C@H](O)[C@@H](O)[C@@H](O[C@@H]([C@H](O)[C@@H](O)C=O)[C@H](O)CO)O[C@@H]2CO)[C@H](O)[C@@H](O)[C@@H]1N[C@H]1C=C(CO)[C@@H](O)[C@H](O)[C@H]1O` [Acarbose] showed an LEL in the data set on Bovidae of 350 mg/kg-day.
For the compound `CC(=O)O` [Acetic acid], the NOAEL in the data set with Oryctolagus sp. (oral, mortality) stood at 16 mg/kg-day. Moreover, the figures for the LC50 in the data set on Tagia sp. (mortality) and in the data set on Cyprinus carpio were > 1000 mg/kg and 43.8 µg/mL (≈ 729 µM), respectively. The compound also gave an NOEC in the data set with Daphnia magna (chronic/long-term, duration: 21 days, reproduction) of 22.7 mg/L. Also, the NOAEC in the data set with Homo sapiens was 10 mg/m3. Further, the LD50 in the data set with Apis mellifera (dermal) is > 96 µg/piece; in the data set on Apis mellifera (oral, unspecified), > 110 µg/piece.
The compound `O=[N+]([O-])[O-].O=[N+]([O-])[O-].O=[N+]([O-])[O-].[Al+3]` [Aluminum nitrate] came in with an NOEC in the data set with Lymnaea stagnalis of 0.1 mg/L.
For `CCCc1ncc(C[n+]2ccccc2C)c(N)n1.Cl.[Cl-]` [Amprolium hydrochloride], the NOEC in the data set with Tagia sp. (reproductive, reproduction) is 100 mg/kg; in the data set with Bibionidae, 101 mg/kg. Moreover, in the data set on Gallus gallus (duration: 43 days, M/F, Chicken), the LEL was 625 mg/kg-day.
Turning to `CC(C)[C@H]1OC(=O)[C@H](Cc2ccccc2)N(C)C(=O)[C@@H](C(C)C)OC(=O)[C@H](Cc2ccccc2)N(C)C(=O)[C@@H](C(C)C)OC(=O)[C@H](Cc2ccccc2)N(C)C1=O` [Beauvericin], the NOAEL with Meleagris sp. (not reported) was 136 µg/kg-day; with Gallus gallus (repeat dose other), 1.22 mg/kg-day and 0.536 mg/kg-day.
As for `Cc1oc2ccccc2c1C` [Benzofuran, 2,3-dimethyl-], the NOAEL in data set [1] (duration: 90 days) came to 0.6 mg/kg-day; in the data set with Rattus norvegicus (subchronic, duration: 90 days, oral) it was 0.6 mg/kg-day.
`O=C(O)c1ccccc1` [Benzoic acid]: the NOEC worked out at 1000 mg/kg in the data set on Hypoaspis aculeifer; 143 mg/kg in the data set with Folsomia candida; 384 mg/kg with Pontoscolex corethrurus (chronic/long-term, growth). In addition, in the data set on Oncorhynchus mykiss, the LC50 is > 9 µg/mL. For the same compound, the LEL with Meleagris sp. (F) is 1500 mg/kg; in the data set on Gallus gallus (duration: 36 days, M, Chicken) it was 1500 mg/kg-day; in the data set with Sus scrofa (repeat dose other, F, Large White x Landrace, clinical chemistry), 20000 mg/kg-day; in the data set on Sus scrofa (repeat dose other, oral, diet, Not specified, histopathology: nonneoplastic), 10000 mg/kg-day; in the data set with Sus scrofa (setting [2]), 5000 mg/kg-day; in the data set on Sus scrofa (subchronic, duration: 84 days, oral, diet, Not specified, organ weight) it was 20000 mg/kg-day. Moreover, the LD50 with Rattus norvegicus (oral) is > 1700 mg/kg-day. For the same compound, the NOAEL stood at 500 mg/kg-day in the data set on Rattus norvegicus (chronic, duration: 2 years, oral, diet, other) and 500 mg/kg-day with Rattus norvegicus (chronic, duration: 16 weeks, oral, histopathology: nonneoplastic).
As for `C[Se]CCC(O)C(=O)O` (stereo not drawn) [Butanoic acid, 2-hydroxy-4-(methylseleno)-], the LEL amounted to 5 mg/kg in the data set on Meleagris sp. (M/F, But big 6); 5 mg/kg-day with Gallus gallus (duration: 35 days, M/F); 5 mg/kg-day with Gallus gallus (duration: 42 days, M/F); 5 mg/kg-day in the data set on Sus scrofa (setting [2]).
On to `[Ca+2].[S-]SSS[S-]` [Calcium polysulfide], for which the LR50 in the data set on Typhlodromus pyri was found to be 113 g/ha. Besides, the LC50 was > 1000 mg/kg in the data set on Tagia sp. (mortality) and 2.67 µg/mL in the data set with Oncorhynchus mykiss. The LD50 with Apis mellifera (duration: 48 hours, oral, unspecified) was > 69.8 µg/piece; in the data set with Rattus norvegicus (oral), 1340 mg/kg-day. The same compound came in with an NOAEL with Rattus norvegicus (subchronic, duration: 90 days, oral, clinical chemistry) of 150 mg/kg-day.
